Earlier results, collected in patent US6432971B1, “Method of prevention of prostatic carcinoma with 17β-N-monosubstituted-carbamoyl-4-aza-5α-androst-1-en-3-ones” (Merck & Co., Inc., priority 1991, dated 2002).

Legend:
[1] = tested on: testosterone-5α-reductase; conditions: in vitro; Voigt and Hsia, Endocrinology 92, 1216 (1973)
[2] = tested on: female hamster flank organ; conditions: for effect on flank organ response elicited by 5α-dihydrotestosterone: concomitant administration with topical 5α-dihydrotestosterone; for effect on flank organ response elicited by testosterone: concomitant administration with topical testosterone

Row | Structure (SMILES) | inhibition of testosterone-5α-reductase [1] | effect on flank organ response elicited by 5α-dihydrotestosterone [2] | effect on flank organ response elicited by testosterone [2]
1 | COC(=O)[C@H]1CC[C@H]2[C@@H]3CCC4=CC(=O)CC[C@]4(C)[C@H]3CC[C@]12C [methyl 4-androsten-3-one-17β-carboxylate] | active inhibitors of testosterone-5α-reductase in vitro | did not inhibit the response elicited by 5α-dihydrotestosterone | inhibited the response elicited by testosterone
2 | C[C@]12CC[C@H]3[C@@H](CCC4=CC(=O)CC[C@@]43C)[C@@H]1CC[C@@H]2C(=O)O [4-androsten-3-one-17β-carboxylic acid] | active inhibitors of testosterone-5α-reductase in vitro | did not inhibit the response elicited by 5α-dihydrotestosterone | inhibited the response elicited by testosterone
